Assay results from article PMC4551912, “Synthetic biosensors for precise gene control and real-time monitoring of metabolites” (Nucleic Acids Research, 2015).

What was measured:
[1] = molecular target: TetR (Escherichia coli, UniProt P04483); format: cell-based; settings: high-copy plasmid, LB, 37°C; extracellular inducer; induction (derepression); lumped parameter of uptake, DNA binding and Kd, not a pure affinity; read-out: Half maximal parameter
[2] = molecular target: T1, CdaR (Escherichia coli, UniProt P37047); format: cell-based; settings: high-copy plasmid, LB, 37°C; extracellular inducer; activation; lumped parameter of uptake, DNA binding and Kd, not a pure affinity; read-out: Half maximal parameter
T1 sequence (P37047 1-385): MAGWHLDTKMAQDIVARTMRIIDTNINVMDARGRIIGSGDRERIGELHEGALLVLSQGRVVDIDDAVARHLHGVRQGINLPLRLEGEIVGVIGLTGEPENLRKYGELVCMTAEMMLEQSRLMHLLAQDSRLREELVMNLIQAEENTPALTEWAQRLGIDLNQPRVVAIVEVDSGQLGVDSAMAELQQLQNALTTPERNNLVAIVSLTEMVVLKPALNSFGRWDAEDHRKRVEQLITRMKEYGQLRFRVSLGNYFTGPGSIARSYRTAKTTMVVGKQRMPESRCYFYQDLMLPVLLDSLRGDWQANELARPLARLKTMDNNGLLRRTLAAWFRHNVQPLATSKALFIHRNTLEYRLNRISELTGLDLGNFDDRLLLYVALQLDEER

Sequence of TetR (P04483 whole entry, looked up): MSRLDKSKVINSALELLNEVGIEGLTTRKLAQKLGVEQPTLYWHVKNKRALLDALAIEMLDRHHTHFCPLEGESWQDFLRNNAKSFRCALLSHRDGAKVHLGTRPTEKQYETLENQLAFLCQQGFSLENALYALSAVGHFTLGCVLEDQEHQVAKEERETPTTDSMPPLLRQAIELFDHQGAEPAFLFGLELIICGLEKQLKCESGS

Compound	EC50 [1]	EC50 [2]
Cc1c2c(c(O)c3c(O)cccc13)C(=O)[C@]1(O)C(=O)C(C(N)=O)=C(O)[C@@H](N(C)C)[C@@H]1C2 [anhydrotetracycline]	0.081 ± 0.001 µM	–
O=C(O)[C@@H](O)[C@@H](O)[C@H](O)[C@@H](O)C(=O)O [glucarate]	–	490 ± 60 µM
